Assay [1] is described as follows: In vitro NO release test (Griess method). To be noted: 200 μM test compound solution mixed with 200 μM L-cysteine solution, 37° C. As for the experimental part: NO was transiently oxidized in aqueous solution using released NO by Griess' method, NO^2− And Griess reagent form a complex, which has strong UV uptake at 540 nm to determine the amount of NO released by the compound. • 1) Preparation of solution: blank solution: 10 mL DMSO and 190 m L PBS mixed; G riess Reagent: sulfonamide (4.0 g), N-(1-naphthalyl) ethylenediamine dihydrochloride (0.2 g) and 10 mL 85% H3PO4 dissolved in 90 mL of distilled water, Blow until clear solution; L-cysteine solution: after accurate weighing of L-cysteine, Add a certain amount of PBS, Prepare a weighed 200 μM solution; Test compound solution: the exact weighing of the test compound, Dissolved in D MSO and diluted to a concentration of 1 mM, Then, when diluted in PBS, To a concentration of 200 μM.
2) Formulation of standard curve equation: prepare sodium nitrite solution concentration: 0 ,0 , 1, 3, 6, 12.5, 25, 50, 100 μmol/L, 150 μL of each concentration, add 50 μL of Griess reagent mix, incubated in 37° C. constant temperature shaker for 30 min, the plate reader measured each tube absorbance at 540 nm, after subtracting the blank solution reading, the standard curve equation . . . 78.56.13.25 • 3) Test compound test: mix 2 mL of the test compound solution and L-cysteine solution, incubate in 37° C. constant temperature shakers for 120 min, take 150 μL of each mixture, add 50 μL of Griess reagent, then incubate in 37° C. constant temperature shaker for 30 min, the microplate measured each tube absorbance at 540 nm, then subtract the blank solution reading and substitute the value into the standard curve equation to obtain NO release.
On the technique in general: The Griess reaction detects nitrite, a stable product of nitric oxide.

The test system of assay [2] is platelet aggregation induced by ADP. The experiment in a line: Antiplatelet aggregation effect, ADP-induced, turbidimetry in platelet-rich plasma. To be noted: Homo sapiens, 2 min; platelet rich plasma of healthy subjects; 25 μL of 50 nM compound solution in 225 μL plasma, 37° C. 2 min; ADP final 2 μM; read-out: The rate of platelet aggregation inhibition. Type of assay: cell-based. As for the experimental part: • 1) Experimental material: ADP, epinephrine, collagen (bilBio) • 2) Experimental method: blood samples provided by healthy subjects were mixed blood with 3.8% citric acid solution and centrifuged at 160 r/min to obtain platelet-rich plasma. To calibrate the data, the obtained platelet-rich plasma was further centrifuged at 2000 r/min to obtain platelet-poor plasma, stored in a −20° C. refrigerator. Testing was performed using Born I's turbiometry. 225 μL of platelet rich plasma was added to the reaction cup, the embodiment compound was configured as 50 nM solution (25 m M Tris-acetate and 120 m M N a Cl), 25 μL of embodiment compound solution was added and after incubation at 37° C. for 2 min, 5 μL of ADP (final concentration 2 μM) was added for platelet aggregation induction. To assess the degree of platelet aggregation, the maximum absorbance value took the data after ADP, thus calculating the inhibition rate of ADP-induced platelet aggregation by each embodiment compound. According to the data in Table 6 below, the compounds of the present application embodiment all have a good effect of inhibiting the platelet aggregation induced by ADP.

Assay [3] relates to rats with hypoxic pulmonary hypertension. The experiment in a line: In vivo test in rats with hypoxic pulmonary hypertension. More on the design: species or system rat. As to conditions: SD male rats, low pressure low oxygen chamber, 5 mg/kg, after four weeks, vs model group. As to the method:
• 1) Experimental instruments and materials, HX-200 animal ventilator, and SD male rats used in the experiment were all purchased from Yangzhou University. All control groups were reared in a normal environment, and the administration intervention and model groups were reared in the low pressure low oxygen chamber (air pressure 50 kPa, oxygen concentration 10%). • 2) Compound 15 was dissolved using DMSO/solutol/water (10/10/80). In the intervention group, the dose was 5 mg/kg, all rats were weighed weekly, survival was recorded, and pulmonary artery pressure was measured after four weeks. Rats (3 ml/kg) were anesthetized with chloral hydrate (100 g/L), fixed in the supine position, tracheotomy, and breathing assisted with a small animal ventilator (frequency 60 beats/min, 5 ml, breath ratio 4:5). Free the left third rib, a catheter connecting one end to the tension transducer was sent to the pulmonary artery, and the mean pulmonary artery pressure (mP AP) was recorded through the BL-420E Biofunction experimental system. […] The results of FIG. 1 show the effect of beraprost derivative compound 15.

Assay [4] has as its system postmenopausal osteoporosis mouse model. Nature of the assay: Therapeutic effect of osteoporosis, postmenopausal osteoporosis mouse model (ovariectomy). More on the design: Tb · N: unit not given here. Type of assay: in vivo. An excerpt: • 1) Test materials; 1. Animal clean grade C57BL/6 strain, 8-10 weeks old not pregnant females were purchased from Yangzhou University. 2. Main reagents and instruments, Bujiale (estradiol valerate tablets, Bayer); mouse osteocalcin (osteocalcin, OC) enzyme-linked immunotest kit, alkaline phosphatase (alkaline phosphatase, ALP) test kit, tartrate acid phosphatase (StrACP) test kit (all the above kits were purchased in Nanjing). Dual-energy X-ray bone densitometer (HOLOGIC); ECLIPSE 50i microscope (Nikon); MUTISKANMK3 microplate reader (Thermo); tissue slicing equipment (including KD-TS3D1 biological tissue automatic dehydrmachine (Zhejiang Cody), TB-718 biological tissue automatic embedding machine (Hubei), R138 rotary slicer (Hubei), TK-212 automatic constant temperature drift instrument (Hubei), TK-213 automatic constant temperature dryer (Hubei), etc.). • 2) Test method: A animals were grouped, and the random method divided the female mice into 4 groups, namely, sham operation group, model group, positive drug group, and test drug group. B Preparation of postmenopausal osteoporosis mouse model, chloral hydrate anesthesia and removed the ovaries in the lying position. In the sham group, only the same volume of fat tissue near the ovaries was removed. Vaginal smear was performed on days 4-8 after ovariectomy to determine if the ovariectomy was complete. Method of c, on the third day after the operation, positive control drug (0.1 mL/10 g gavage), equal volume of 0.9%sodium chloride solution in sham group and model group, continuous gavage for 28 d. Test ResResults test: Blood and bone tissue samples after day 28. The following indicators were tested: (1) determination of bone density, lumbar L4-6 measurement of bone density by double energy X-ray bone density instrument. (2) Observation of bone tissue and morphology, the bone tissue and morphology changes were observed by tibial HE staining, mainly testing the trabecular volume ratio (bone volume/tissue volume, BV/TV) and the number of trabecular bone (trabecular bone number, Tb. N) and trabecular separation (trabecular separation, Tb. And sp) were the quantitative evaluation index. (3) For the determination of biological indicators ALP, StrACP, OC, and E 2 in mouse serum, blood was collected by enucleation method, and by kit and enzyme-linked adsorption assay.

Assay [5] has as its system renal tubular epithelial cells in acute renal failure. Nature of the assay: Renal tubular protective effect of acute renal failure (co-culture with isolated cells). Type of assay: cell-based, rat. To be noted: renal tubular epithelial cells from acute renal failure rats, 200 μg/mL. An excerpt:
• 1) Test materials, glycerol (MacLean Company); CCK-8 kit, Annexin V-PE cell apoptosis detection kit, superoxide dismutase activity detection kit, malondialdehyde detection kit (Biyun Biotech); first anti-cysteine aspartate protease, caspase 3 and 9, B lymphocytoma-2 gene, Bcl-2-associated X protein (BAX, anti-rabbit), TGF-β 1, smad 3 (abcam, USA). Protein gel imager, microplate reader, and flow cytometer (Beckman Coulter, Type CytoFLEX). Clean-grade SD rats were purchased from Yangzhou University. • 2) Test method, the model of acute renal failure of rat hind limb injection was used. After 24 h, the level of BUN and Cr increased in rat serum, vascular necrosis of renal interstitium, and inflammatory cell infiltration were regarded as successful model establishment. Some renal tissues from model animals were taken for in vitro culture, renal tubular epithelial cells were isolated and identified, and test drug co-culture (0-24 hours) was added. Changes of various biochemical indicators and apoptosis were determined. […] Conclusion Test compounds can promote tubular epithelial cells proliferation, inhibit apoptosis, inhibit oxidative stress, and slow the damage of renal tubular epithelial cells by inhibiting the expression of proapoptotic proteins.

The mark [6] stands for this setting: tibial HE staining, ovariectomised C57BL/6 mice, gavage 28 d.

In general, inhibition refers to the relative decrease from the control value, in per cent. As for `CC#CCC(C)[C@@H](O)/C=C/[C@H]1[C@@H]2c3cccc(CCCC(=O)OCC(CO[N+](=O)[O-])CO[N+](=O)[O-])c3O[C@@H]2C[C@@H]1O` (some centres unmarked) [Compound 28], the “120 min NO^2−” value in assay [1] is 14.8 µM. Also, the inhibition at 0.005 µM in assay [2] stood at 47%.

In the case of `CC#CCC(C)[C@@H](O)/C=C/[C@H]1[C@@H]2c3cccc(CCCC(=O)OCC4CCCC(CO[N+](=O)[O-])C4)c3O[C@@H]2C[C@@H]1O` (some centres unmarked) [Compound 15], in assay [1], the “120 min NO^2−” value is 12.7 µM. For the same compound, in assay [3], the “mean pulmonary artery pressure (mPAP)” value was “lower compared with the model group”. Further, in assay [4] (mouse serum, day 28), the ALP is reported as 19 ± 2.2 King-Armstrong unit/100 mL, the E2 was 35 ± 4 ng/mL, the OC is reported as 1.7 ± 0.2 ng/mL and the “Str ACP” value came out at 41 ± 3.6 U/L. Besides, in assay [4] (setting [6]), the BV/VT is 0.29 ± 0.05, the “Tb · N” value is 7.5 ± 0.6 and the “Tb · sp” value worked out at 152 ± 15 μm. In addition, in assay [5], the “B AX protein level” value was determined as 0.32 ± 0.12, the “B CL2 protein level” value came out at 0.56 ± 0.11, the MDA worked out at 489 ± 38 Nnol/g protein and the “S mad3 protein level” value was 0.19 ± 0.07. In assay [5], the SOD turned out to be 1016 ± 117 U/g egg white, the “T GF-β1 protein level” value was 0.24 ± 0.05, the “The rate of apoptosis” value was determined as 9 ± 0.7% and the caspase3 protein level was 0.28 ± 0.06. This compound also yielded a caspase9 protein level in assay [5] of 0.48 ± 0.1. In assay [2], the inhibition at 0.005 µM worked out at 92%.

As to `CC#CCC(C)[C@@H](O)/C=C/[C@H]1[C@@H]2c3cccc(CCCC(=O)OCCCOCC(CO[N+](=O)[O-])O[N+](=O)[O-])c3O[C@@H]2C[C@@H]1O` (some centres unmarked) [Compound 31], in assay [1], the “120 min NO^2−” value came to 16.7 µM. Moreover, the inhibition at 0.005 µM in assay [2] is 67%.

As to `CC#CCC(C)[C@@H](O)/C=C/[C@H]1[C@@H]2c3cccc(CCCC(=O)OCOC(=O)CCCO[N+](=O)[O-])c3O[C@@H]2C[C@@H]1O` (some centres unmarked) [Compound 12], the “120 min NO^2−” value in assay [1] was 8.5 µM. In addition, the inhibition at 0.005 µM in assay [2] was determined as 42%.

`CC#CCC(C)[C@@H](O)/C=C/[C@H]1[C@@H]2c3cccc(CCCC(=O)OCCCCc4ccc(CO[N+](=O)[O-])cc4)c3O[C@@H]2C[C@@H]1O` (some centres unmarked) [Compound 13]: the “120 min NO^2−” value in assay [1] is 10.1 µM. In addition, the inhibition at 0.005 µM in assay [2] was 61%.

For the compound `CC#CCC(C)[C@@H](O)/C=C/[C@H]1[C@@H]2c3cccc(CCCC(=O)OCCCCOC(=O)CCO[N+](=O)[O-])c3O[C@@H]2C[C@@H]1O` (some centres unmarked) [Compound 19], in assay [1], the “120 min NO^2−” value is 11.3 µM. Besides, the inhibition at 0.005 µM in assay [2] was 69%.

For the origin of these results see patent US20240300935A1, “Nitrogen Oxide Donors of Beraprost Derivative and the Pharmaceutical Compositions with the Use Thereof” (GUANGZHOU KEMROCMED CO., LTD., priority 2021, published 2024).
